“And” between values parts separate entries of the source, which are not always exact repeats. Equal values may be shown once.
What was measured:
Assay type in all cases: cell-based, human
[1] = tested on: 22Rv1-CDK7-D97N cells; assay: Growth assay (SRB), 22Rv1 CDK7-D97N knock-in pool; conditions: for % Growth: 22Rv1 CDK7 D99N
Description: (§1) To determine the IC50 of drug treatments on growth, cells were seeded in 96-well culture plates. Two days after seeding, the cells were treated with increasing concentrations of drugs and incubated for 4 days. Cell number was determined using the SRB assay (Skehan et al, [1990]), and IC50 values were calculated using non-linear regression curve fitting in GraphPad Prism v10. For all other growth experiments, cells were seeded into 96-well plates, and appropriate drugs were added 2 days after seeding. Cells were then incubated in an IncuCyte Zoom live-cell imager, with cell confluency measured every 6 h. Cell doubling times were determined by non-linear curve fitting (exponential growth equation) in GraphPad Prism v10.
Alt-R^TM S.p. Cas9 nuclease V3, Alt-R CRISPR-Cas9 crRNA, TracrRNA and the donor templates were obtained from Integrated DNA Technologies. […] Cells were treated with 0.7 µM of Alt-R HDR Enhancer V2 to improve HRD efficiency. Sequences of the CRISPRs in the crRNA and the donor templates are shown in the Reagents and tools table. Donor templates were designed to include non-coding substitutions to aid genome DNA PCR for identifying knock-in events and to facilitate cloning; these substitutions are noted in the Reagents and tools table.

[2] = tested on: 22Rv1 homozygous CDK7-D97N CL3 cells; assay: IncuCyte confluency growth, 22Rv1 homozygous CDK7-D97N CL3
Description: as §1

[3] = tested on: 22Rv1-SamR cells; assay: IncuCyte confluency growth, 22Rv1-SamR; conditions: for % Confluency: 80nM SY1365, 22Rv1-SamR
Description: as §1

[4] = tested on: MCF7 cells; assay: Growth assay (SRB), MCF7; conditions: for % Growth: biological reps
Procedure, shortened: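 Cells are seeded and, two days later, exposed to drug. The SRB endpoint follows 4 days of treatment across increasing doses and yields IC50 by nonlinear regression. The confluency assays instead monitor growth every 6 h and report doubling time from an exponential model.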

[5] = tested on: PolII and CDK2 phosphorylation in MCF7-CDK7-D97N cells; assay: Immunoblotting of CDK7 targets, MCF7-CDK7-D97N; conditions: 24 h, immunoblot
Description: Whole-cell lysates were prepared in RIPA buffer (Sigma-Aldrich), supplemented with protease and phosphatase inhibitor cocktails (Roche). Protein sample concentrations were determined using the Pierce BCA Protein Assay kit (ThermoFisher Scientific). […] PolII CTD phosphorylation antibodies (P-Ser2 (ab5095) and P-Ser5 (ab5131), used at 1:10,000 dilution), as well as total PolII (ab817; 1:2000 dilution) and β-actin (ab6276; 1:100,000 dilution) were purchased from Abcam.

[6] = tested on: 22Rv1 cells; assay: IncuCyte confluency growth, 22Rv1
Description: as §1

For CN(C)C/C=C/C(=O)Nc1ccc(C(=O)N[C@@]2(C)CCC[C@@H](Nc3ncc(Cl)c(-c4c[nH]c5ccccc45)n3)C2)nc1 [SY-1365], the “Sensitivity in growth assays” value ([1]; 22Rv1-CDK7-D97N vs parental) was “remaining sensitive”, the “% Growth” value ([1]; Log10 Conc. (nM) 0.09) was 48.76% and 39.48% and the “% Growth” value ([1]; Log10 Conc. (nM) 0.69) was 32.85% and 26.42%. The “% Growth” value ([1]; Log10 Conc. (nM) 1.29) was 16.40% and 13.77%, the “% Growth” value ([1]; Log10 Conc. (nM) 1.89) was -9.18% and -1.73% and the “% Growth” value ([1]; Log10 Conc. (nM) 3.70) was -12.72%. For the same compound, the “% Growth” value ([1]; Log10 Conc. (nM) -0.52) was 87.25% and 62.47%, the “% Growth” value ([1]; Log10 Conc. (nM) -1.12) was 95.17% and 93.47% and the “% Growth” value ([1]; Log10 Conc. (nM) -1.72) was 98.87%. The “% Confluency” value ([2]; 80nM SY1365, CDK7D97N CL3, 0 hours) was 10.64% and 16.42% and 15.20%, the “% Confluency” value ([2]; 80nM SY1365, CDK7D97N CL3, 6 hours) was 12.17% and 18.19% and 16.81% and the “% Confluency” value ([2]; 80nM SY1365, CDK7D97N CL3, 12 hours) was 12.25% and 16.05% and 14.62%. For the same compound, the “% Confluency” value ([2]; 80nM SY1365, CDK7D97N CL3, 18 hours) was 11.21% and 14.01% and 12.61%, the “% Confluency” value ([2]; 80nM SY1365, CDK7D97N CL3, 24 hours) was 9.91% and 12.68% and 11.43% and the “% Confluency” value ([2]; 80nM SY1365, CDK7D97N CL3, 30 hours) was 9.03% and 11.88% and 10.71%. The “% Confluency” value ([2]; 80nM SY1365, CDK7D97N CL3, 36 hours) was 8.55% and 11.34% and 10.26%, the “% Confluency” value ([2]; 80nM SY1365, CDK7D97N CL3, 42 hours) was 8.35% and 11.02% and 9.94% and the “% Confluency” value ([2]; 80nM SY1365, CDK7D97N CL3, 48 hours) was 8.30% and 10.78% and 9.70%. For the same compound, the “% Confluency” value ([2]; 80nM SY1365, CDK7D97N CL3, 54 hours) was 8.19% and 10.49% and 9.48%, the “% Confluency” value ([2]; 80nM SY1365, CDK7D97N CL3, 60 hours) was 8.11% and 10.33% and 9.30% and the “% Confluency” value ([2]; 80nM SY1365, CDK7D97N CL3, 66 hours) was 8.06% and 10.08% and 9.17%. For the same compound, the “% Confluency” value ([2]; 80nM SY1365, CDK7D97N CL3, 72 hours) was 8.00% and 9.91% and 9.02%, the “% Confluency” value ([2]; 80nM SY1365, CDK7D97N CL3, 78 hours) was 7.89% and 9.76% and 8.94% and the “% Confluency” value ([2]; 80nM SY1365, CDK7D97N CL3, 84 hours) was 7.83% and 9.66% and 8.79%. The “% Confluency” value ([2]; 80nM SY1365, CDK7D97N CL3, 90 hours) was 7.73% and 9.55% and 8.72%, the “% Confluency” value ([2]; 80nM SY1365, CDK7D97N CL3, 96 hours) was 7.64% and 9.51% and 8.65% and the “% Confluency” value ([2]; 80nM SY1365, CDK7D97N CL3, 114 hours) was 7.42% and 9.25% and 8.52%. For the same compound, the “% Confluency” value ([2]; 80nM SY1365, CDK7D97N CL3, 120 hours) was 7.37% and 9.31% and 8.48%, the “% Confluency” value ([2]; 80nM SY1365, CDK7D97N CL3, 126 hours) was 7.26% and 9.19% and 8.45% and the “% Confluency” value ([2]; 80nM SY1365, CDK7D97N CL3, 132 hours) was 7.22% and 9.15% and 8.43%. The “% Confluency” value ([2]; 80nM SY1365, CDK7D97N CL3, 138 hours) was 7.16% and 9.12% and 8.33%, the “% Confluency” value ([2]; 80nM SY1365, CDK7D97N CL3, 144 hours) was 7.11% and 8.98% and 8.32% and the “Growth inhibition over time” value ([2]; 22Rv1 homozygous CDK7-D97N clone, IncuCyte confluency, samuraciclib at 1.35 µM) was “potently growth inhibited”. For the same compound, the “% Confluency” value ([3]; 0 hours) was 10.34% and 15.03% and 14.87%, the “% Confluency” value ([3]; 6 hours) was 9.52% and 13.73% and 13.78% and the “% Confluency” value ([3]; 12 hours) was 7.18% and 10.14% and 10.08%. The “% Confluency” value ([3]; 18 hours) was 6.46% and 9.11% and 8.97%, the “% Confluency” value ([3]; 24 hours) was 6.42% and 8.94% and 8.84% and the “% Confluency” value ([3]; 30 hours) was 6.40% and 8.87% and 8.89%. For the same compound, the “% Confluency” value ([3]; 36 hours) was 6.41% and 8.74% and 8.80%, the “% Confluency” value ([3]; 42 hours) was 6.26% and 8.57% and 8.60% and the “% Confluency” value ([3]; 48 hours) was 6.09% and 8.40% and 8.37%. The “% Confluency” value ([3]; 54 hours) was 5.90% and 8.18% and 8.12%, the “% Confluency” value ([3]; 60 hours) was 5.76% and 7.96% and 7.93% and the “% Confluency” value ([3]; 66 hours) was 5.65% and 7.83% and 7.79%. The “% Confluency” value ([3]; 72 hours) was 5.56% and 7.64% and 7.59%, the “% Confluency” value ([3]; 78 hours) was 5.44% and 7.53% and the “% Confluency” value ([3]; 84 hours) was 5.34% and 7.42% and 7.40%. The “% Confluency” value ([3]; 90 hours) was 5.24% and 7.29% and 7.32%, the “% Confluency” value ([3]; 96 hours) was 5.21% and 7.20% and 7.25% and the “% Confluency” value ([3]; 114 hours) was 5.05% and 7.01% and 7.04%. For the same compound, the “% Confluency” value ([3]; 120 hours) was 5.01% and 6.93% and 6.98%, the “% Confluency” value ([3]; 126 hours) was 4.98% and 6.86% and 6.94% and the “% Confluency” value ([3]; 132 hours) was 4.95% and 6.82% and 6.86%. The “% Confluency” value ([3]; 138 hours) was 4.94% and 6.80% and 6.88%, the “% Confluency” value ([3]; 144 hours) was 4.87% and 6.78% and 6.83% and the “Growth inhibition over time” value ([3]; 22Rv1-SamR, IncuCyte confluency, samuraciclib at 1.35 µM) was “potently growth inhibited”. The IC50 ([4]; 4 days, SRB) was 0.89 nM, the “% Growth” value ([4]; Log10 Conc. (nM) 3.70, 4 days) was -12.18% and the “% Growth” value ([4]; Log10 Conc. (nM) -0.52, 4 days) was 88.75% and 65.89% and 87.60% and 88.37%. For the same compound, the “% Growth” value ([4]; Log10 Conc. (nM) -1.12, 4 days) was 97.02% and 94.10% and 95.64% and 94.95%, the “% Growth” value ([4]; Log10 Conc. (nM) -1.72, 4 days) was 90.31% and 94.08% and 94.26% and the “Inhibition of PolII and CDK2 phosphorylation” value [5] was “maintained”. The “% Confluency” value ([6]; 80nM SY1365, 22Rv1, 0 hours) was 11.42% and 19.49% and 18.80%, the “% Confluency” value ([6]; 80nM SY1365, 22Rv1, 6 hours) was 11.80% and 20.40% and 19.49% and the “% Confluency” value ([6]; 80nM SY1365, 22Rv1, 12 hours) was 10.21% and 17.43% and 16.82%. For the same compound, the “% Confluency” value ([6]; 80nM SY1365, 22Rv1, 18 hours) was 9.13% and 15.66% and 15.15%, the “% Confluency” value ([6]; 80nM SY1365, 22Rv1, 24 hours) was 8.54% and 14.77% and 14.37% and the “% Confluency” value ([6]; 80nM SY1365, 22Rv1, 30 hours) was 8.21% and 14.28% and 13.85%. The “% Confluency” value ([6]; 80nM SY1365, 22Rv1, 36 hours) was 8.00% and 13.79% and 13.42%, the “% Confluency” value ([6]; 80nM SY1365, 22Rv1, 42 hours) was 7.74% and 13.41% and 13.03% and the “% Confluency” value ([6]; 80nM SY1365, 22Rv1, 48 hours) was 7.60% and 13.19% and 12.71%. The “% Confluency” value ([6]; 80nM SY1365, 22Rv1, 54 hours) was 7.42% and 12.81% and 12.32%, the “% Confluency” value ([6]; 80nM SY1365, 22Rv1, 60 hours) was 7.30% and 12.50% and 12.14% and the “% Confluency” value ([6]; 80nM SY1365, 22Rv1, 66 hours) was 7.19% and 12.29% and 11.85%. For the same compound, the “% Confluency” value ([6]; 80nM SY1365, 22Rv1, 72 hours) was 7.07% and 12.06% and 11.63%, the “% Confluency” value ([6]; 80nM SY1365, 22Rv1, 78 hours) was 6.98% and 11.84% and 11.40% and the “% Confluency” value ([6]; 80nM SY1365, 22Rv1, 84 hours) was 6.88% and 11.65% and 11.26%. The “% Confluency” value ([6]; 80nM SY1365, 22Rv1, 90 hours) was 6.85% and 11.59% and 11.21%, the “% Confluency” value ([6]; 80nM SY1365, 22Rv1, 96 hours) was 6.73% and 11.35% and 10.98% and the “% Confluency” value ([6]; 80nM SY1365, 22Rv1, 114 hours) was 6.60% and 11.05% and 10.79%. The “% Confluency” value ([6]; 80nM SY1365, 22Rv1, 120 hours) was 6.58% and 10.92% and 10.70%, the “% Confluency” value ([6]; 80nM SY1365, 22Rv1, 126 hours) was 6.55% and 10.80% and 10.69% and the “% Confluency” value ([6]; 80nM SY1365, 22Rv1, 132 hours) was 6.55% and 10.73% and 10.58%. For the same compound, the “% Confluency” value ([6]; 80nM SY1365, 22Rv1, 138 hours) was 6.46% and 10.70% and 10.57%, the “% Confluency” value ([6]; 80nM SY1365, 22Rv1, 144 hours) was 6.45% and 10.59% and 10.48% and the “Growth inhibition over time” value ([6]; 22Rv1, IncuCyte confluency) was “potently growth inhibited”.

From paper PMC12528448, “Resistance to CDK7 inhibitors directed by acquired mutation of a conserved residue in cancer cells” (The EMBO Journal, 2025)
